Laboratory results reported in ChEMBL document CHEMBL1201862, “PubChem BioAssay data set” (2004).
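Briefly, cells in 96-well plates were exposed to five compound concentrations for 48 h, and endpoints were estimated by linear interpolation. Abbreviation: GI50, concentration required for 50% inhibition of growth.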 The source made the active and inactive calls. Cut-off read from the data, not from the text of the source: active = GI50 up to about 1.1 µM and inactive = higher. Square brackets hold non-standard residues; d marks the D form. Peptide text beside a SMILES is read from it. * marks the point of attachment. Tyr(3-Br) = N[C@@H](Cc1ccc(O)c(Br)c1)C(=O)O; Boc = CC(C)(C)OC(=O)*

How the values were obtained:
Experiment in all cases: inhibition of tumour cell growth, NCI panel, 48 h
UACC-257 = tested on: UACC-257
MCF7 = tested on: MCF7
SNB-19 = tested on: SNB-19
MDA-MB-435 = tested on: MDA-MB-435
OVCAR-4 = tested on: OVCAR-4
PC-3 = tested on: PC-3
ACHN = tested on: ACHN
HT-29 = tested on: HT-29
CAKI-1 = tested on: CAKI-1
OVCAR-5 = tested on: OVCAR-5
HOP-92 = tested on: HOP-92
KM12 = tested on: KM12
SF-295 = tested on: SF-295
SW-620 = tested on: SW-620
NCI-H460 = tested on: NCI-H460
NCI-H23 = tested on: NCI-H23
HL-60 = tested on: HL-60
UACC-62 = tested on: UACC-62

Row | SMILES | GI50 (UACC-257) | GI50 (MCF7) | GI50 (SNB-19) | GI50 (MDA-MB-435) | GI50 (OVCAR-4) | GI50 (PC-3) | GI50 (ACHN) | GI50 (HT-29) | GI50 (CAKI-1) | GI50 (OVCAR-5) | GI50 (HOP-92) | GI50 (KM12) | GI50 (SF-295) | GI50 (SW-620) | GI50 (NCI-H460) | GI50 (NCI-H23) | GI50 (HL-60) | GI50 (UACC-62)
1 | N#C[BH2-][n+]1ccc(C(=O)NNC(c2ccccc2)C(F)(F)F)cc1 (configuration not stated) | > 100 µM (inactive) | > 100 µM (inactive) | > 100 µM (inactive) | > 100 µM (inactive) | > 100 µM (inactive) | > 100 µM (inactive) | > 100 µM (inactive) | > 100 µM (inactive) | > 100 µM (inactive) | > 100 µM (inactive) | 1 µM (active) | > 100 µM (inactive) | > 100 µM (inactive) | > 100 µM (inactive) | > 100 µM (inactive) | 31.7 µM (inactive) | > 100 µM (inactive) | –
2 | COc1cc(/C=C/C=C2\CC(C)C/C(=C\C=C\c3ccc(O)c(OC)c3)C2=O)ccc1O (configuration not stated) | 20.2 µM (inactive) | 5.6 µM (inactive) | 23 µM (inactive) | 8.32 µM (inactive) | 4.83 µM (inactive) | 11.3 µM (inactive) | 4.98 µM (inactive) | 4.08 µM (inactive) | 12.1 µM (inactive) | 14.4 µM (inactive) | 7.23 µM (inactive) | 31.7 µM (inactive) | – | 12.7 µM (inactive) | 14.5 µM (inactive) | 12.2 µM (inactive) | 7.35 µM (inactive) | 11.9 µM (inactive)
3 | Cc1ccc(S(=O)(=O)Oc2ccc(OS(=O)(=O)c3ccc(C)cc3)c3c2C(=O)c2ccccc2C3=O)cc1 | > 100 µM (inactive) | > 100 µM (inactive) | 54.6 µM (inactive) | > 100 µM (inactive) | > 100 µM (inactive) | > 100 µM (inactive) | > 100 µM (inactive) | > 100 µM (inactive) | > 100 µM (inactive) | > 100 µM (inactive) | > 100 µM (inactive) | > 100 µM (inactive) | – | > 100 µM (inactive) | > 100 µM (inactive) | > 100 µM (inactive) | > 100 µM (inactive) | > 100 µM (inactive)
4 | O=C(Cn1cc(-c2ccccc2)nn1)NC1CCCC1 | > 100 µM (inactive) | > 100 µM (inactive) | > 100 µM (inactive) | > 100 µM (inactive) | > 100 µM (inactive) | > 100 µM (inactive) | > 100 µM (inactive) | > 100 µM (inactive) | > 100 µM (inactive) | > 100 µM (inactive) | > 100 µM (inactive) | > 100 µM (inactive) | > 100 µM (inactive) | > 100 µM (inactive) | > 100 µM (inactive) | > 100 µM (inactive) | > 100 µM (inactive) | –
5 | COC(=O)[C@H](Cc1ccc(O)c(Br)c1)NC(=O)[C@H](Cc1ccc(O)cc1)NC(=O)OC(C)(C)C (Boc-Tyr-[Tyr(3-Br)]-OMe) | 43.8 µM (inactive) | 31.3 µM (inactive) | > 100 µM (inactive) | 23 µM (inactive) | 29.8 µM (inactive) | > 100 µM (inactive) | 37.3 µM (inactive) | 37.7 µM (inactive) | > 100 µM (inactive) | > 100 µM (inactive) | 28.6 µM (inactive) | 40.6 µM (inactive) | > 100 µM (inactive) | 42.6 µM (inactive) | 19.2 µM (inactive) | 27.4 µM (inactive) | 32.4 µM (inactive) | –
6 | CO[C@]12CC(=O)C3(C(C[C@H]4CC5CCC6=CC(=O)CC[C@]6(OC(C)=O)C5C[C@@]43C)C1)C1C[C@H]3[C@@H]4CCC5=CC(=O)CC[C@]5(OC(C)=O)[C@H]4CC[C@]3(C)C12 (some centres not stated) | > 100 µM (inactive) | > 100 µM (inactive) | > 100 µM (inactive) | > 100 µM (inactive) | > 100 µM (inactive) | > 100 µM (inactive) | > 100 µM (inactive) | > 100 µM (inactive) | > 100 µM (inactive) | > 100 µM (inactive) | > 100 µM (inactive) | – | > 100 µM (inactive) | > 100 µM (inactive) | > 100 µM (inactive) | > 100 µM (inactive) | > 100 µM (inactive) | > 100 µM (inactive)
